Laboratory results from US11702422B2, “Imidazopyridazines as modulators of IL-17” (Janssen Pharmaceutica NV, priority 2020, dated 2023).

Tests used:
[1] = test system: IL-17A-induced G-CSF production in human normal keratinocyte (NHK); test: NHK Assay: IL-17A-induced G-CSF production in human normal keratinocytes; format: cell-based; conditions: 24 h, adult normal human keratinocytes, IL-17A 5 ng/mL, simple average if tested more than once
Method in brief: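 G-CSF released by primary adult human keratinocytes after 24 h at 37° C was quantified by HTRF via standard curve to give IC50. Stimulus was 5 ng/mL IL-17A pre-mixed 1 h at rt with compound dilutions, in 5% FBS and 0.2% DMSO. Cell viability was assessed in parallel with CellTiter-Glo.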

[2] = target: IL-17A(FLAG-Tagged): IL-17RA(His-Tagged) (Homo sapiens, UniProt Q16552, K93Q); test: IL-17A(FLAG-Tagged): IL-17RA(His-Tagged) Binding Disruption Eu-HTRF Assay; conditions: IL-17A/IL-17RA binding disruption, simple average if tested more than once
Sequence of UniProt Q16552 (Q16552 with tags, fused parts or gaps K93Q): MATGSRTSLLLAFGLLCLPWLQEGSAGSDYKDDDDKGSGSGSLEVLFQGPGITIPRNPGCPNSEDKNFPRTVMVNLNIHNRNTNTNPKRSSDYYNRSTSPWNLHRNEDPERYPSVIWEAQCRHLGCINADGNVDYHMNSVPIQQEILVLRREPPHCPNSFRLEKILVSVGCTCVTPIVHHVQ
Method in brief: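 IC50 comes from a one-site competition fit of the HTRF 665/620 nm ratio. Compound dilutions (2-fold, 22 points) were held 1 h rt with FLAG-tagged IL-17A dimer, then His-tagged IL-17RA plus Eu-cryptate anti-FLAG and D2 anti-His antibodies were added for 2 h rt.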

| SMILES | IC50 [2] [nM] | IC50 ([1]; Homo sapiens, Keratinocyte) [nM] | IC50 [1] [nM] |
| --- | --- | --- | --- |
| CCn1ncnc1C(=O)N[C@H](c1cn2ncc([C@H](NC(=O)CCC(F)(F)F)C3CC3)cc2n1)C1CCC(F)(F)CC1 [Example 106, N—((S)-(7-((R)-Cyclopropyl(4,4,4-trifluorobutanamido)methyl)imidazo[1,2-b]pyridazin-2-yl)(4,4-difluorocyclohexyl)methyl)-1-ethyl-1H-1,2,4-triazole-5-carboxamide] | 130 | 830 | – |
| COCC(NC(=O)CC1CC(F)(F)C1)c1cnn2cc([C@H](COC(C)(C)C(F)(F)F)NC(=O)c3ccnn3C(C)C)nc2c1 (single isomer, unassigned) [Example 539, N—((R)-1-(7-((S*)-1-(2-(3,3-Difluorocyclobutyl)acetamido)-2-methoxyethyl)imidazo[1,2-b]pyridazin-2-yl)-2-((1,1,1-trifluoro-2-methylpropan-2-yl)oxy)ethyl)-1-isopropyl-1H-pyrazole-5-carboxamide] | 130 | 78 | – |
| O=C(CCC(F)(F)F)N[C@@H](c1cnn2cc([C@@H](NC(=O)c3cnn(CCOC(F)(F)F)c3)C3CCC(F)(F)CC3)nc2c1)C1CC1 [Example 36, N—((S)-(7-((R)-Cyclopropyl(4,4,4-trifluorobutanamido)methyl)imidazo[1,2-b]pyridazin-2-yl)(4,4-difluorocyclohexyl)methyl)-1-(2-(trifluoromethoxy)ethyl)-1H-pyrazole-4-carboxamide] | 140 | 120 | – |
| CC(C)n1nccc1C(=O)N[C@H](c1cn2ncc([C@H](NC(=O)CC(C)(C)C(F)F)C3CC3)cc2n1)C1CCC(F)(F)CC1 [Example 313, N—((S)-(7-((R)-Cyclopropyl(4,4-difluoro-3,3-dimethylbutanamido)methyl)imidazo[1,2-b]pyridazin-2-yl)(4,4-difluorocyclohexyl)methyl)-1-isopropyl-1H-pyrazole-5-carboxamide] | 160 | 480 | – |
| CC(C)n1nccc1C(=O)N[C@H](c1cn2ncc([C@H](NC(=O)CC3CCCC3(F)F)C3CC3)cc2n1)C1CCC(F)(F)CC1 (stereo partly drawn) [Example 275, N-((1S)-(7-((1R)-Cyclopropyl(2-(2,2-difluorocyclopentyl)acetamido)methyl)imidazo[1,2-b]pyridazin-2-yl)(4,4-difluorocyclohexyl)methyl)-1-isopropyl-1H-pyrazole-5-carboxamide] | 170 | 150 | – |
| Cc1c(C(=O)N[C@H](c2cn3ncc([C@H](NC(=O)CCC(F)(F)F)C4CC4)cc3n2)C2CCC(F)(F)CC2)cnn1CC(F)F [Example 50, N—((S)-(7-((R)-Cyclopropyl(4,4,4-trifluorobutanamido)methyl)imidazo[1,2-b]pyridazin-2-yl)(4,4-difluorocyclohexyl)methyl)-1-(2,2-difluoroethyl)-5-methyl-1H-pyrazole-4-carboxamide] | 350 | 1000 | – |
| O=C(CCC(F)(F)F)N[C@@H](c1cnn2cc([C@@H](NC(=O)[C@H]3C[C@H]3CF)C3CCC(F)(F)CC3)nc2c1)C1CC1 (relative stereo) [Example 364, (1S*,2R*)—N—((S)-(7-((R*)-Cyclopropyl(4,4,4-trifluorobutanamido)methyl)imidazo[1,2-b]pyridazin-2-yl)(4,4-difluorocyclohexyl)methyl)-2-(fluoromethyl)cyclopropane-1-carboxamide] | 2100 | > 20000 | – |
| O=C(CCC(F)(F)F)N[C@@H](c1cnn2cc([C@@H](NC(=O)[C@H]3C[C@H]3C(F)F)C3CCC(F)(F)CC3)nc2c1)C1CC1 (relative stereo) [Example 359, (1S*,2R*)—N—((S)-(7-((R*)-Cyclopropyl(4,4,4-trifluorobutanamido)methyl)imidazo[1,2-b]pyridazin-2-yl)(4,4-difluorocyclohexyl)methyl)-2-(difluoromethyl)cyclopropane-1-carboxamide] | 1100 | 10000 | – |
| Cc1nonc1C(=O)N[C@H](c1cn2ncc([C@H](NC(=O)CC3CCCC3(F)F)C3CC3)cc2n1)C1CCC(F)(F)CC1 (stereo partly drawn) [Example 291, N-((1S)-(7-((1R)-Cyclopropyl(2-(2,2-difluorocyclopentyl)acetamido)methyl)imidazo[1,2-b]pyridazin-2-yl)(4,4-difluorocyclohexyl)methyl)-4-methyl-1,2,5-oxadiazole-3-carboxamide] | 370 | 4000 | – |
| CC1(c2nocc2C(=O)N[C@H](c2cn3ncc([C@H](NC(=O)CCC(F)(F)F)C4CC4)cc3n2)C2CCC(F)(F)CC2)COC1 [Example 100, N—[(S)-[7-[(R)-Cyclopropyl-(4,4,4-trifluorobutanoylamino)methyl]imidazo[1,2-b]pyridazin-2-yl]-(4,4-difluorocyclohexyl)methyl]-3-(3-methyloxetan-3-yl)isoxazole-4-carboxamide] | 160 | 85 | – |
| O=C(CCC(F)(F)F)NC(c1cnn2cc([C@@H](NC(=O)c3cnn(CCC(F)(F)F)n3)C3CCC(F)(F)CC3)nc2c1)C1CC1 (single isomer, unassigned) [Example 18, N—((S)-(7-((R*)-Cyclopropyl(4,4,4-trifluorobutanamido)methyl)imidazo[1,2-b]pyridazin-2-yl)(4,4-difluorocyclohexyl)methyl)-2-(3,3,3-trifluoropropyl)-2H-1,2,3-triazole-4-carboxamide] | 190 | – | 420 |
| O=C(CCC(F)(F)F)N[C@@H](c1cnn2cc([C@@H](NC(=O)c3ncnn3CC(F)F)C3CCC(F)(F)CC3)nc2c1)C1CC1 [Example 56, N—((S)-(7-((R)-Cyclopropyl(4,4,4-trifluorobutanamido)methyl)imidazo[1,2-b]pyridazin-2-yl)(4,4-difluorocyclohexyl)methyl)-1-(2,2-difluoroethyl)-1H-1,2,4-triazole-5-carboxamide] | 170 | 730 | – |
| CC(C)n1cncc1C(=O)N[C@H](c1cn2ncc([C@H](NC(=O)CCC(F)(F)F)C3CC3)cc2n1)C1CCC(F)(F)CC1 [Example 85, N—((S)-(7-((R)-Cyclopropyl(4,4,4-trifluorobutanamido)methyl)imidazo[1,2-b]pyridazin-2-yl)(4,4-difluorocyclohexyl)methyl)-1-isopropyl-1H-imidazole-5-carboxamide] | 250 | 340 | – |

Molecules with a lower IC50 [2], results first:

| IC50 [2] [nM] | SMILES | IC50 ([1]; Homo sapiens, Keratinocyte) [nM] | IC50 [1] [nM] |
| --- | --- | --- | --- |
| 99 | Cc1nonc1C(=O)N[C@H](c1cn2ncc(C(CC3CCC3)NC(=O)CC3CC(F)(F)C3)cc2n1)C1CCC(F)(F)CC1 (single isomer, unassigned) [Example 439, N—((S)-(7-((S*)-2-Cyclobutyl-1-(2-(3,3-difluorocyclobutyl)acetamido)ethyl)imidazo[1,2-b]pyridazin-2-yl)(4,4-difluorocyclohexyl)methyl)-4-methyl-1,2,5-oxadiazole-3-carboxamide] | – | 150 |
| 77 | CN(C)c1nonc1C(=O)N[C@H](c1cn2ncc([C@H](NC(=O)CC3CC(F)(F)C3)C3CC3)cc2n1)C1CCC(F)(F)CC1 [Example 406, N—((S)-(7-((R)-Cyclopropyl(2-(3,3-difluorocyclobutyl)acetamido)methyl)imidazo[1,2-b]pyridazin-2-yl)(4,4-difluorocyclohexyl)methyl)-4-(dimethylamino)-1,2,5-oxadiazole-3-carboxamide] | 290 | – |
| 65 | [2H]C([2H])([2H])n1nccc1C(=O)N[C@H](c1cn2ncc(C(NC(=O)CCC(F)(F)F)C3CCC3)cc2n1)C1CCC(F)(F)CC1 (single isomer, unassigned) [Example 492, N—((S)-(7-((R*)-Cyclobutyl(4,4,4-trifluorobutanamido)methyl)imidazo[1,2-b]pyridazin-2-yl)(4,4-difluorocyclohexyl)methyl)-1-(methyl-d3)-1H-pyrazole-5-carboxamide] | 95 | – |
| 48 | Cc1conc1C(=O)N[C@H](c1cn2ncc([C@H](NC(=O)CCC(F)(F)F)C3CC3)cc2n1)C1CCC(F)(F)CC1 [Example 158, N—((S)-(7-((R)-Cyclopropyl(4,4,4-trifluorobutanamido)methyl)imidazo[1,2-b]pyridazin-2-yl)(4,4-difluorocyclohexyl)methyl)-4-methylisoxazole-3-carboxamide] | 210 | – |
| 43 | CC(C)c1oncc1C(=O)N[C@H](c1cn2ncc([C@H](NC(=O)CCC(F)(F)F)C3CC3)cc2n1)C1CCC(F)(F)CC1 [Example 89, N—((S)-(7-((R)-Cyclopropyl(4,4,4-trifluorobutanamido)methyl)imidazo[1,2-b]pyridazin-2-yl)(4,4-difluorocyclohexyl)methyl)-5-isopropylisoxazole-4-carboxamide] | – | 65 |
| 37 | O=C(CCC(F)(F)F)N[C@@H](c1cnn2cc([C@@H](NC(=O)c3cc(OC(F)F)ccc3F)C3CCC(F)(F)CC3)nc2c1)C1CC1 [Example 169, N—((S)-(7-((R)-Cyclopropyl(4,4,4-trifluorobutanamido)methyl)imidazo[1,2-b]pyridazin-2-yl)(4,4-difluorocyclohexyl)methyl)-5-(difluoromethoxy)-2-fluorobenzamide] | 200 | – |
| 24 | Cc1nonc1C(=O)N[C@H](c1cn2ncc([C@H](NC(=O)CC34CC(C3)C4)C3CC3)cc2n1)C1CCC(F)(F)CC1 [Example 249, N—((S)-(7-((R)-(2-(Bicyclo[1.1.1]pentan-1-yl)acetamido)(cyclopropyl)methyl)imidazo[1,2-b]pyridazin-2-yl)(4,4-difluorocyclohexyl)methyl)-4-methyl-1,2,5-oxadiazole-3-carboxamide] | 98 | – |
